Patent US8076346B2 (priority 2000, dated 2011)

Key:
[1] = system: seizure induced either by electroshock or pentylenetetrazole; conditions: mice, given by stomach tube; cited from earlier work
[2] = Pharmacokinetics of DPB after oral DPB or NaDPB and IV NaDPB in Beagle dogs; assay type: in vivo; conditions: for AUC(0-t): Beagle, 75 mg/kg
Procedure: (§1) In accordance with the present invention, pharmacokinetic parameters were calculated using standard non-compartmental methods, as implemented in WinNonlin™ 4.0.1. […] The mean, SD and CV (%) were used to calculate the AUC0-t (μg·h/mL), C. (μg/ml) (the maximum observed concentration), Tmax (hours) (the time to reach that peak concentration) and Kel (the elimination rate constant) for each animal and each analyte.
(§2) AUC0-t was calculated using the linear trapezoidal rule, which employs an approximate integration formula. The area of each trapezoid was calculated, and the sum of all the areas of all the trapezoids yielded an estimate of the true area under the curve. (See, Gibaldi et al. Pharmacokinetics. 2nd Ed. Marcel Dekker, Inc., 1982; Yeh et al., A comparison of numerical integrating algorithms by trapezoidal, lagrange, and spline approximations. J. Pharmacokinet Biopharm. 6: 79 (1978), the disclosure of which is herein incorporated by reference.) Cmax and Tmax were then determined for each concentration vs. time profile. Elimination rate constant (Kel) was calculated using regression analyses on the natural log (ln) of plasma concentration values (y) versus time (x).
We examined the delivery of DPB to the vascular compartment by administrating directly DPB and compared it with the sodium salt of DPB in dogs. This study compared the pharmacokinetics of DPB after oral administration of a single dose of DPB (75 mg/kg) or sodium salt of DPB (75 mg/kg) in Beagle dogs. Twenty-eight Beagle dogs were administered DPB and sodium salt of DPB by a single oral gavage (n=24). Blood samples were obtained pre-dose and 0.5, 1, 2, 3, 4, 6, 12, 18, 24, 36 and 48 hours after dosing. DPB was quantified in plasma using HPLC (LLOQ=0.25 μg/mL).
(§3) We calculated AUC0-t for DPB at various times (24, 36 and 48 hours) after oral administrations of DPB and sodium salt of DPB.

[3] = Pharmacokinetics of DPB after oral DPB or NaDPB and IV NaDPB in Sprague-Dawley rats; assay type: in vivo; conditions: for AUC(0-t): Sprague-Dawley, 150 mg/kg; for AUC(0-t) / Cmax / Tmax / half-life / bioavailability: rat, in vivo; for bioavailability: read-out: F (absolute bioavailability)
Procedure: as §1, §2
We examined the delivery of DPB to the vascular compartment by administrating directly DPB and compared it with the sodium salt of DPB. This study compared the pharmacokinetics of DPB after oral administration of DPB (150 mg/kg) and sodium salt of DPB (150 mg/kg) in rats. Fifty-four rats were administered DPB and sodium salt of DPB by a single oral gavage (n=54). Blood samples were obtained (approximately 0.5 mL each) were collected following each treatment from animal via the jugular vein. Blood samplings from groups of 3 rats/sex/time point were collected at various times after dosing, in order to provide the complete time-points of pre-dose, 0, 0.5, 1, 2, 3, 4, 6, 12, 18, 24, 36 and 48 hours after dosing. Each blood sample was collected into a tube containing lithium heparin and the samples were spun in a refrigerated centrifuge. The resultant plasma was stored at −80° C. prior to analysis. DPB was quantified in plasma using HPLC (LLOQ=0.25 μg/mL).
as §3

[4] = Brain concentration of DPB after oral DPB or NaDPB and IV NaDPB in Sprague-Dawley rats; assay type: in vivo; conditions: for concentration at 18 h / concentration at 24 h / concentration at 36 h / concentration at 48 h: rat, in vivo
Procedure: In this study, we measured the brain concentration of DPB. Brains were collected as soon as possible after euthanasia from each rat. They were stored in a freezer at −80° C. prior to determination of DPB brain tissue concentrations. Table 6 summarizes the brain concentrations of DPB after oral administration of DPB and sodium salt of DPB in Sprague-Dawley rats.

[5] = in vivo; conditions: dog, analyte MMMDPB
Procedure: as §1, §2
Blood samples were obtained pre-dose and 0.25, 0.5, 1, 2, 3, 4, 6, 9, 12, 15, 18, and 24 hours after dosing. Venous blood (˜1 mL) were drawn and collected in lithium heparin (anticoagulant). Blood samples were spun in a refrigerated centrifuge and plasma were stored at −80° C. prior to analysis. […] Calibration curves were obtained using a weighted (1/C^2) least squares linear regression analysis of peak area ratio (analyte/internal standard) versus the nominal concentration of the calibration standards. Concentrations were obtained by interpolation from the run defined calibration curve. Regressions and figures were generated by PE Sciex Analyst Version 1.2 software.
Plasma samples were thawed and subjected to solid phase extraction with 2 mL acetonitrile prior to HPLC method with Tandem Mass Spectrometry Detection. Chromatographic conditions were performed as followed: […]

[6] = dog, in vivo, po, oral 75 mg/kg, analyte DPB in plasma, read-out: AUC0-t
[7] = dog, in vivo, po, oral 75 mg/kg, analyte DPB, read-out: AUC0-24
[8] = dog, in vivo, po, oral 75 mg/kg, analyte DPB, read-out: AUC0-36
[9] = dog, in vivo, po, oral 75 mg/kg, analyte DPB, read-out: AUC0-48
[10] = dog, in vivo, oral 75 mg/kg, analyte DPB in plasma
[11] = female, po, Sprague-Dawley rats, female, oral 150 mg/kg, analyte DPB in plasma, read-out: AUC0-t
[12] = female, po, female, oral 150 mg/kg, analyte DPB, read-out: AUC0-36
[13] = female, po, female, oral 150 mg/kg, analyte DPB, read-out: AUC0-48
[14] = male, po, Sprague-Dawley rats, male, oral 150 mg/kg, analyte DPB in plasma, read-out: AUC0-t
[15] = male, po, male, oral 150 mg/kg, analyte DPB, read-out: AUC0-36
[16] = male, po, male, oral 150 mg/kg, analyte DPB, read-out: AUC0-48
[17] = Sprague-Dawley rats, female, oral 150 mg/kg, analyte DPB in plasma
[18] = Sprague-Dawley rats, male, oral 150 mg/kg, analyte DPB in plasma
[19] = dog, in vivo, IV infusion 75 mg/kg, analyte DPB in plasma
[20] = oral 75 mg/kg, relative to oral DPB free acid
[21] = Sprague-Dawley rats, female, IV infusion 150 mg/kg, analyte DPB in plasma
[22] = Sprague-Dawley rats, male, IV infusion 150 mg/kg, analyte DPB in plasma

O=C1NC(=O)C(c2ccccc2)(c2ccccc2)C(=O)N1 [DPB, 5,5-diphenyl barbituric acid, reference compound]
protection from seizure [1]: effective | AUC(0-t) [2, 6]: 222 µg·h/mL | AUC(0-t) [2, 7]: 231 µg·h/mL | AUC(0-t) [2, 8]: 234 µg·h/mL | AUC(0-t) [2, 9]: 234 µg·h/mL | Cmax [2, 10]: 18.7 µg/mL | Tmax [2, 10]: 6.5 h | half-life [2, 10]: 4 h | AUC(0-t) [3, 11]: 1950 µg·h/mL | AUC(0-t) [3, 12]: 1600 µg·h/mL | AUC(0-t) [3, 13]: 1950 µg·h/mL | AUC(0-t) [3, 14]: 776 µg·h/mL | AUC(0-t) [3, 15]: 757 µg·h/mL | AUC(0-t) [3, 16]: 776 µg·h/mL | Cmax [3, 17]: 74 µg/mL | Tmax [3, 17]: 12 h | half-life [3, 17]: 33.2 h | Cmax [3, 18]: 38.3 µg/mL | Tmax [3, 18]: 6 h | half-life [3, 18]: 6.6 h | Mean brain concentration of DPB ([4]; male, oral 150 mg/kg, 48 hr): BQL

COCN1C(=O)NC(=O)C(c2ccccc2)(c2ccccc2)C1=O [MMMDPB, monomethoxymethyl-5,5-diphenyl barbituric acid, reference compound]
bioavailability ([5]; Beagle, Beagle dogs, oral 30 mg/kg vs IV 15 mg/kg, read-out: F (absolute bioavailability)): 107% | bioavailability ([5]; Beagle, po, 30 mg/kg, mean oral bioavailability of MMMDPB, Beagle dogs, oral 30 mg/kg, mean): 107% | bioavailability ([5]; Beagle, po, 30 mg/kg, oral bioavailability of MMMDPB, range, Beagle dogs, oral 30 mg/kg, range over animals): 43 to 177%

O=C1NC(=O)C(c2ccccc2)(c2ccccc2)C(=O)N1.[Na] [NaDPB, sodium 5,5-diphenyl barbiturate]
AUC(0-t) ([2]; dog, in vivo, iv, IV infusion 75 mg/kg, analyte DPB in plasma, read-out: AUC0-t): 1570 µg·h/mL | AUC(0-t) ([2]; dog, in vivo, iv, IV infusion 75 mg/kg, analyte DPB, read-out: AUC0-24): 1410 µg·h/mL | AUC(0-t) ([2]; dog, in vivo, iv, IV infusion 75 mg/kg, analyte DPB, read-out: AUC0-36): 1600 µg·h/mL | AUC(0-t) ([2]; dog, in vivo, iv, IV infusion 75 mg/kg, analyte DPB, read-out: AUC0-48): 1620 µg·h/mL | AUC(0-t) [2, 6]: 883 µg·h/mL | AUC(0-t) [2, 7]: 883 µg·h/mL | AUC(0-t) [2, 8]: 962 µg·h/mL | AUC(0-t) [2, 9]: 962 µg·h/mL | Cmax [2, 19]: 95.7 µg/mL | Tmax [2, 19]: 0.5 h | half-life [2, 19]: 6 h | bioavailability ([2]; dog, in vivo, oral 75 mg/kg vs IV 75 mg/kg, read-out: absolute bioavailability of DPB): ~58% | Cmax [2, 10]: 54.2 µg/mL | Tmax [2, 10]: 7.8 h | half-life [2, 10]: 5.9 h | AUC0-t for DPB, increase versus oral DPB [2, 20]: ~4 fold | Cmax for DPB, increase versus oral DPB [2, 20]: ~3 fold | AUC0-t for DPB, increase versus oral DPB ([3]; Sprague-Dawley rats, female, oral 150 mg/kg, relative to oral DPB free acid): ~2 fold | AUC(0-t) ([3]; female, iv, Sprague-Dawley rats, female, IV infusion 150 mg/kg, analyte DPB in plasma, read-out: AUC0-t): 4330 µg·h/mL | AUC(0-t) ([3]; female, iv, female, IV infusion 150 mg/kg, analyte DPB, read-out: AUC0-36): 4760 µg·h/mL | AUC(0-t) [3, 11]: 4040 µg·h/mL | AUC(0-t) [3, 12]: 3130 µg·h/mL | AUC(0-t) [3, 13]: 4040 µg·h/mL | AUC(0-t) ([3]; male, iv, Sprague-Dawley rats, male, IV infusion 150 mg/kg, analyte DPB in plasma, read-out: AUC0-t): 4030 µg·h/mL | AUC(0-t) ([3]; male, iv, male, IV infusion 150 mg/kg, analyte DPB, read-out: AUC0-36): 4610 µg·h/mL | AUC(0-t) ([3]; male, iv, male, IV infusion 150 mg/kg, analyte DPB, read-out: AUC0-48): 5690 µg·h/mL | AUC(0-t) [3, 14]: 3410 µg·h/mL | AUC(0-t) [3, 15]: 2720 µg·h/mL | AUC(0-t) [3, 16]: 3410 µg·h/mL | Cmax [3, 21]: 174 µg/mL | Tmax [3, 21]: 2 h | half-life [3, 21]: 26.8 h | Cmax [3, 17]: 104 µg/mL | Tmax [3, 17]: 12 h | half-life [3, 17]: 32.9 h | bioavailability ([3]; Sprague-Dawley rats, female, oral 150 mg/kg, analyte DPB): 87.7% | Cmax [3, 22]: 184 µg/mL | Tmax [3, 22]: 1 h | half-life [3, 22]: 24.2 h | Cmax [3, 18]: 86.9 µg/mL | Tmax [3, 18]: 18 h | half-life [3, 18]: 17.6 h | bioavailability ([3]; Sprague-Dawley rats, male, oral 150 mg/kg, analyte DPB): 70.6% | concentration at 18 h ([4]; female, IV infusion 150 mg/kg): 36100 ng/g | concentration at 24 h ([4]; female, IV infusion 150 mg/kg): 40700 ng/g | concentration at 36 h ([4]; female, IV infusion 150 mg/kg): 21900 ng/g | concentration at 24 h ([4]; female, oral 150 mg/kg): 25800 ng/g | concentration at 36 h ([4]; female, oral 150 mg/kg): 28400 ng/g | concentration at 48 h ([4]; female, oral 150 mg/kg, 48 hr): 14900 ng/g | concentration at 18 h ([4]; male, IV infusion 150 mg/kg): 41200 ng/g | concentration at 24 h ([4]; male, IV infusion 150 mg/kg): 35600 ng/g | concentration at 36 h ([4]; male, IV infusion 150 mg/kg): 27500 ng/g | concentration at 24 h ([4]; male, oral 150 mg/kg): 29900 ng/g | concentration at 36 h ([4]; male, oral 150 mg/kg): 23600 ng/g | concentration at 48 h ([4]; male, oral 150 mg/kg, 48 hr): 9460 ng/g

COCN1C(=O)NC(=O)C(c2ccccc2)(c2ccccc2)C1=O.[Na] [NaMMMDPB, sodium monomethoxymethyl-5,5-diphenyl barbiturate]
bioavailability ([5]; in vivo, 30 mg/kg, oral 30 mg/kg vs IV 15 mg/kg, read-out: F (absolute bioavailability)): 60% | bioavailability ([5]; in vivo, po, 30 mg/kg, mean oral bioavailability of MMMDPB, oral 30 mg/kg, mean): 60% | bioavailability ([5]; in vivo, po, 30 mg/kg, oral bioavailability of MMMDPB, range, oral 30 mg/kg, range over animals): 34 to 99%
